Source: patent US8013156B2 (Exelixis, Inc., priority 2003, dated 2011)

Biological target: Tie-2 (Homo sapiens, UniProt Q02763)
Assay: Tie-2 tyrosine kinase activity assay (luciferase/luciferin ATP consumption with pEY substrate, or 33P-ATP incorporation)
Type: biochemical
Conditions: human enzyme Tie-2
Summary of the method: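 Values are IC50 categories (A <50 nM to D ≥10,000 nM), with Ki obtainable by fitting rates to a tight-binding model. Assay formats: 33P-ATP phosphate transfer to adsorbed generic substrate counted by scintillation, or luciferase-detected ATP depletion using pEY.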

Chain of Tie-2 (Q02763 23-1124): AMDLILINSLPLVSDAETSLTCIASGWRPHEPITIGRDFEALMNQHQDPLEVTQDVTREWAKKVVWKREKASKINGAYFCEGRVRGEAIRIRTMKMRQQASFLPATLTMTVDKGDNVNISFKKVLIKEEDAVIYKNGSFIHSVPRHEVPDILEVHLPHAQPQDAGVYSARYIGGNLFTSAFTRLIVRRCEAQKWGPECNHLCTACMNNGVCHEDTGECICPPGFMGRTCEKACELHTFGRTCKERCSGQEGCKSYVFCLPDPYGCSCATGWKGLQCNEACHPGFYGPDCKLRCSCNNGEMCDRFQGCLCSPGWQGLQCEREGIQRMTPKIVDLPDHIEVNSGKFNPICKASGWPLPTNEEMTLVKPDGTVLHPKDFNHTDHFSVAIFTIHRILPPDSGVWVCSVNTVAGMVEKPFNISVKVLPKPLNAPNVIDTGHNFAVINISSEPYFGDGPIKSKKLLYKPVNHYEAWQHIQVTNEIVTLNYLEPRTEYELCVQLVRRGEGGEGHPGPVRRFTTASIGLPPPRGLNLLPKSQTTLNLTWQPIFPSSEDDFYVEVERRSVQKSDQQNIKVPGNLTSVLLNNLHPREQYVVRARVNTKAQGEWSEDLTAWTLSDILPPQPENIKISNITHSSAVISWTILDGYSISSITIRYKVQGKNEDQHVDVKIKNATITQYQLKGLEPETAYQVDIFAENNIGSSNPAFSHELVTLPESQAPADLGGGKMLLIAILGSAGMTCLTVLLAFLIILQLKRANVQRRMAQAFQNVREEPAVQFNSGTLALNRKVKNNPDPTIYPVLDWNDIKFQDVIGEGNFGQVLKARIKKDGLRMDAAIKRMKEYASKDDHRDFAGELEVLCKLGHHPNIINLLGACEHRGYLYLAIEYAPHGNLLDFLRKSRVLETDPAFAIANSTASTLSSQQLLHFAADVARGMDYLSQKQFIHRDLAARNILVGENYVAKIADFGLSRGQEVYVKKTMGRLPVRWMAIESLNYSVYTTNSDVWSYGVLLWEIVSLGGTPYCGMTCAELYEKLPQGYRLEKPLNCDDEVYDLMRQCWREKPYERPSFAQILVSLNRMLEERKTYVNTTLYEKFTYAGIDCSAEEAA

Row | Structure (SMILES) | IC50 [nM]
1 | CC(C)c1ccc(NC(=O)N2CCN(c3nsnc3OCc3ccncc3)CC2C)cc1 (centres unmarked) [Example 50, 2-methyl-N-[4-(1-methylethyl)phenyl]-4-{4-[(pyridin-4-ylmethyl)oxy]-1,2,5-thiadiazol-3-yl}piperazine-1-carboxamide] | 1000 to 10000
2 | O=C(Nc1cccc(C(F)(F)F)c1)N1CCCN(c2nsnc2OCc2ccncc2)CC1 [Example 45, 4-{4-[(pyridin-4-ylmethyl)oxy]-1,2,5-thiadiazol-3-yl}-N-[3-(trifluoromethyl)phenyl]-1,4-diazepane-1-carboxamide] | 1000 to 10000
3 | CCCNc1nccc(COc2nsnc2N2CCN(C(=O)Nc3cc(C(F)(F)F)cc(C(F)(F)F)c3)CC2)n1 [Example 122, N-[3,5-bis(trifluoromethyl)phenyl]-4-[4-({[2-(propylamino)pyrimidin-4-yl]methyl}oxy)-1,2,5-thiadiazol-3-yl]piperazine-1-carboxamide] | 50 to 1000
4 | CC1CN(c2nsnc2OCc2ccncc2)CCN1C(=O)Nc1cccc(C(F)(F)F)c1 (centres unmarked) [Example 41, 2-methyl-4-{4-[(pyridin-4-ylmethyl)oxy]-1,2,5-thiadiazol-3-yl}-N-[3-(trifluoromethyl)phenyl]piperazine-1-carboxamide] | 50 to 1000
5 | O=C(Nc1cc(C(F)(F)F)cc(C(F)(F)F)c1)N1CCN(c2nsnc2OCc2ccnc(Br)c2)CC1 [Example 87, N-[3,5-bis(trifluoromethyl)phenyl]-4-(4-{[(2-bromopyridin-4-yl)methyl]oxy}-1,2,5-thiadiazol-3-yl)piperazine-1-carboxamide] | 1000 to 10000
6 | CCc1cccc(NC(=O)N2CCN(c3nsnc3OCc3ccnc(N)n3)CC2)c1 [Example 158, 4-(4-{[(2-aminopyrimidin-4-yl)methyl]oxy}-1,2,5-thiadiazol-3-yl)-N-(3-ethylphenyl)piperazine-1-carboxamide] | 50 to 1000
7 | CCC(=O)N1CCN(c2ncccc2OCc2ccnc(N)n2)CC1 [Example 208, 4-({[2-(4-propanoylpiperazin-1-yl)pyridin-3-yl]oxy}methyl)pyrimidin-2-amine] | ≥ 10000
8 | CCc1cc(NC(=O)N2CCN(c3nsnc3OCc3ccnc(N)n3)CC2)ccc1F [Example 252, 4-(4-{[(2-aminopyrimidin-4-yl)methyl]oxy}-1,2,5-thiadiazol-3-yl)-N-(3-ethyl-4-fluorophenyl)piperazine-1-carboxamide] | 50 to 1000
9 | CSc1cccc(NC(=O)N2CCN(c3nsnc3OCc3ccncc3)CC2C)c1 (centres unmarked) [Example 51, 2-methyl-N-[3-(methylthio)phenyl]-4-{4-[(pyridin-4-ylmethyl)oxy]-1,2,5-thiadiazol-3-yl}piperazine-1-carboxamide] | 50 to 1000
10 | Nc1nccc(COc2nsnc2N2CCN(C(=O)Nc3cc(Cl)cc(Cl)c3)CC2)n1 [Example 223, 4-(4-{[(2-aminopyrimidin-4-yl)methyl]oxy}-1,2,5-thiadiazol-3-yl)-N-(3,5-dichlorophenyl)piperazine-1-carboxamide] | 50 to 1000
11 | CCCNc1cc(COc2nsnc2N2CCN(C(=O)Nc3cc(C(F)(F)F)cc(C(F)(F)F)c3)CC2)ccn1 [Example 107, N-[3,5-bis(trifluoromethyl)phenyl]-4-[4-({[2-(propylamino)pyridin-4-yl]methyl}oxy)-1,2,5-thiadiazol-3-yl]piperazine-1-carboxamide] | 50 to 1000
12 | O=C(Nc1cccc(C(F)(F)F)c1)NC1CCN(c2nsnc2OCc2ccncc2)C1 (centres unmarked) [Example 49, N-(1-{4-[(pyridin-4-ylmethyl)oxy]-1,2,5-thiadiazol-3-yl}pyrrolidin-3-yl)-N′-[3-(trifluoromethyl)phenyl]urea] | 1000 to 10000
13 | C[C@@H]1CN(c2nsnc2OCc2ccncc2)CCN1C(=O)Nc1cccc(C(F)(F)F)c1 [Example 53, (2R)-2-methyl-4-{4-[(pyridin-4-ylmethyl)oxy]-1,2,5-thiadiazol-3-yl}-N-[3-(trifluoromethyl)phenyl]piperazine-1-carboxamide] | 50 to 1000
14 | CC1CN(c2nccnc2OCc2ccncc2)CCN1C(=O)Nc1cccc(C(F)(F)F)c1 (centres unmarked) [Example 63, 2-methyl-4-{3-[(pyridin-4-ylmethyl)oxy]pyrazin-2-yl}-N-[3-(trifluoromethyl)phenyl]piperazine-1-carboxamide] | 50 to 1000
15 | CCc1ccc(F)c(NC(=O)N2CCN(c3nsnc3OCc3ccnc(N)n3)CC2)c1 [Example 222, 4-(4-{[(2-aminopyrimidin-4-yl)methyl]oxy}-1,2,5-thiadiazol-3-yl)-N-(5-ethyl-2-fluorophenyl)piperazine-1-carboxamide] | 50 to 1000
16 | CCNc1nccc(COc2nsnc2N2CCN(C(=O)Nc3cc(C(F)(F)F)cc(C(F)(F)F)c3)CC2)n1 [Example 121, N-[3,5-bis(trifluoromethyl)phenyl]-4-[4-({[2-(ethylamino)pyrimidin-4-yl]methyl}oxy)-1,2,5-thiadiazol-3-yl]piperazine-1-carboxamide] | < 50
17 | CCc1cccc(NC(=O)N2CCN(c3ncc(Br)cc3OCc3nc(N)ncc3Br)CC2)c1 [Example 194, 4-(3-{[(2-amino-5-bromopyrimidin-4-yl)methyl]oxy}-5-bromopyridin-2-yl)-N-(3-ethylphenyl)piperazine-1-carboxamide] | < 50
18 | COC(=O)Nc1cc(COc2cccnc2N2CCN(C(=O)Nc3cccc(OC)c3)CC2)ccn1 [Example 165, methyl {4-[({2-[4-({[3-(methyloxy)phenyl]amino}carbonyl)piperazin-1-yl]pyridin-3-yl}oxy)methyl]pyridin-2-yl}carbamate] | 50 to 1000

Now from value to compound:

Row | IC50 [nM] | Structure (SMILES)
19 | < 50 | CC(C)(C)OC(=O)Nc1cc(COc2nsnc2N2CCN(C(=O)Nc3cc(C(F)(F)F)cc(C(F)(F)F)c3)CC2)ccn1 [Example 100, 1,1-dimethylethyl {4-[({4-[4-({[3,5-bis(trifluoromethyl)phenyl]amino}carbonyl)piperazin-1-yl]-1,2,5-thiadiazol-3-yl}oxy)methyl]pyridin-2-yl}carbamate]
20 | < 50 | CNc1cc(COc2nsnc2N2CCN(C(=O)Nc3cc(C(F)(F)F)cc(C(F)(F)F)c3)CC2)ccn1 [Example 112, N-[3,5-bis(trifluoromethyl)phenyl]-4-[4-({[2-(methylamino)pyridin-4-yl]methyl}oxy)-1,2,5-thiadiazol-3-yl]piperazine-1-carboxamide]
21 | < 50 | Nc1nccc(COc2cccnc2N2CCN(C(=O)Nc3cc(F)cc(C(F)(F)F)c3)CC2)n1 [Example 196, 4-(3-{[(2-aminopyrimidin-4-yl)methyl]oxy}pyridin-2-yl)-N-[3-fluoro-5-(trifluoromethyl)phenyl]piperazine-1-carboxamide]
22 | < 50 | CN1CCN(CC(=O)Nc2cc(COc3cccnc3N3CCN(C(=O)Nc4cccc(C(F)(F)F)c4)CC3)ccn2)CC1 [Example 214, 4-(3-{[(2-{[(4-methylpiperazin-1-yl)acetyl]amino}pyridin-4-yl)methyl]oxy}pyridin-2-yl)-N-[3-(trifluoromethyl)phenyl]piperazine-1-carboxamide]
23 | < 50 | CN1CCN(CC(=O)Nc2cc(COc3cccnc3N3CCN(C(=O)Nc4cc(F)cc(C(F)(F)F)c4)CC3)ccn2)CC1 [Example 212, N-[3-fluoro-5-(trifluoromethyl)phenyl]-4-(3-{[(2-{[(4-methylpiperazin-1-yl)acetyl]amino}pyridin-4-yl)methyl]oxy}pyridin-2-yl)piperazine-1-carboxamide]
24 | < 50 | CCc1cccc(NC(=O)N2CCN(c3nccnc3OCc3ccncc3)CC2C)c1 (centres unmarked) [Example 93, N-(3-ethylphenyl)-2-methyl-4-{3-[(pyridin-4-ylmethyl)oxy]pyrazin-2-yl}piperazine-1-carboxamide]
25 | < 50 | CC(C)c1cccc(NC(=O)N2CCN(c3nsnc3OCc3ccnc(N)n3)CC2)c1 [Example 261, 4-(4-{[(2-aminopyrimidin-4-yl)methyl]oxy}-1,2,5-thiadiazol-3-yl)-N-[3-(1-methylethyl)phenyl]piperazine-1-carboxamide]
26 | < 50 | Nc1nccc(COc2cccnc2N2CCN(C(=O)Nc3cc(C(F)(F)F)ccc3Cl)CC2)n1 [Example 192, 4-(3-{[(2-aminopyrimidin-4-yl)methyl]oxy}pyridin-2-yl)-N-[2-chloro-5-(trifluoromethyl)phenyl]piperazine-1-carboxamide]
27 | < 50 | CCNc1cc(COc2nsnc2N2CCN(C(=O)Nc3cc(C(F)(F)F)cc(C(F)(F)F)c3)CC2)ccn1 [Example 113, N-[3,5-bis(trifluoromethyl)phenyl]-4-[4-({[2-(ethylamino)pyridin-4-yl]methyl}oxy)-1,2,5-thiadiazol-3-yl]piperazine-1-carboxamide]
28 | < 50 | O=C(Nc1cccc(C(F)(F)F)c1)N1CCN(c2nccnc2OCc2ccncc2)CC1 [Example 39, 4-{3-[(pyridin-4-ylmethyl)oxy]pyrazin-2-yl}-N-[3-(trifluoromethyl)phenyl]piperazine-1-carboxamide]
29 | < 50 | CN1CCN(CC(=O)Nc2cc(COc3cccnc3N3CCN(C(=O)Nc4cc(C(F)(F)F)cc(Cl)c4F)CC3)ccn2)CC1 [Example 243, N-[3-chloro-2-fluoro-5-(trifluoromethyl)phenyl]-4-(3-{[(2-{[(4-methylpiperazin-1-yl)acetyl]amino}pyridin-4-yl)methyl]oxy}pyridin-2-yl)piperazine-1-carboxamide]
30 | < 50 | Nc1nccc(COc2cccnc2N2CCN(C(=O)Nc3cccc(Br)c3)CC2)n1 [Example 184, 4-(3-{[(2-aminopyrimidin-4-yl)methyl]oxy}pyridin-2-yl)-N-(3-bromophenyl)piperazine-1-carboxamide]
31 | < 50 | CCc1cccc(NC(=O)N2CCN(c3nc(Cl)ccc3OCc3ccnc(N)n3)CC2)c1 [Example 237, 4-(3-{[(2-aminopyrimidin-4-yl)methyl]oxy}-6-chloropyridin-2-yl)-N-(3-ethylphenyl)piperazine-1-carboxamide]
32 | < 50 | CCc1ccc(F)c(NC(=O)N2CCN(c3nccnc3OCc3ccnc(N)n3)CC2)c1 [Example 203, 4-(3-{[(2-aminopyrimidin-4-yl)methyl]oxy}pyrazin-2-yl)-N-(5-ethyl-2-fluorophenyl)piperazine-1-carboxamide]
